From patent US8501806B2, “Methods for preventing or reducing colon carcinogenesis” (Nogra Pharma Limited, priority 2008, dated 2013) come the findings set out here.

Series [1] deals with colonic IEL (intra-epithelial lymphocytes). Kind of series: Proliferation of normal colonic intra-epithelial lymphocytes (anti-CD3/CD28). Particulars: FIG. 4A; anti-CD3/CD28, graded doses, 48 hours. The series is classed as cell-based.
Another series deals with CT26-derived tumors. Kind of series: In vivo formation of CT26-derived tumors. Particulars: for mice with CT26-derived macroscopic tumors: fourteen days after injection (control 10/10). Set-up: species or system Balb/c mice. How it is done: (§1) CT26 cells (1×10^5 cells in 300 μl PBS 1×) were injected subcutaneously into the flank of Balb/c mice, whose fur was shaved and depilated. Five groups of 10 mice each were implanted with CT26. The first group received daily subcutaneously 300 μl PBS (control), the remaining groups received daily subcutaneously compound 14 at a final dose of 1, 4, 8, or 12 mg/kg/mouse dissolved in 300 μl PBS. Both compound 14 and PBS were administered starting on day 3. Further experimentation was performed to assess whether compound 14 had anti-cancer activity when administered systemically. To this end, 3 days after the CT26 inoculation, mice were injected with PBS or compound 14 (8 mg/kg/mouse) intraperitoneally. As a control, mice received subcutaneously compound 14 (8 mg/kg/mouse). Mice were monitored over the time for weight loss. After 2 weeks, mice were sacrificed, tumors were photographed, then excised and their mass calculated according to the following formula: ½×(short diameter)×(long diameter)×(height). Total extracts were prepared from xenografts and analyzed for cyclin D1 protein content by Western blotting using a commercially available antibody (Santa Cruz Biotechnology). To examine whether compound 14 was able to reduce the growth of established CRC xenografts, Balb/c mice were implanted with CT26 as described above. After 2 weeks, mice with similar tumor size, determined by caliper measurements, were divided into three groups of 8 mice each. The first group received daily subcutaneously 300 μl PBS (control), the second group received daily subcutaneously 5-ASA (80 mg/kg) dissolved in 300 μl PBS. The last group received daily subcutaneously compound 14 (8 mg/kg) dissolved in 300 μl PBS. Mice were monitored over the time for weight loss. After 2 weeks, mice were sacrificed, tumors were photographed, then excised and their mass calculated as described above. Studies were approved by the Local Ethical Committee.

The test system of series [2] is established CT26-derived tumors. Kind of series: Growth of established CT26 xenografts. Type of series: in vivo, Balb/c mice. Particulars: FIG. 7D; subcutaneously 8 mg/kg mouse/day for 2 weeks from day 14. The procedure:
as §1, with “To this end, 3 days after the CT26 inoculation, mice were injected with PBS or compound 14 (8 mg/kg/mouse) intraperitoneally. As a control, mice received subcutaneously compound 14 (8 mg/kg/mouse).” left out, “To examine whether compound 14 was able to reduce the growth of established CRC xenografts, Balb/c mice were implanted with CT26 as described above.” left out, “The first group received daily subcutaneously 300 μl PBS (control), the second group received daily subcutaneously 5-ASA (80 mg/kg) dissolved in 300 μl PBS. The last group received daily subcutaneously compound 14 (8 mg/kg) dissolved in 300 μl PBS.” left out, “[…] Mice” for “Studies”, “monitored over” for “approved by”, “time and sacrificed at day 28.” for “Local Ethical Committee.”

For a further series, the system named is 4T1 cells. The series can be described thus: CFSE cell proliferation assay, 4T1 cells. Type of series: cell-based, BALB/c. Particulars: FIG. 9; graded doses, 24 hours. How it is done:
All reagents were from Sigma-Aldrich (Milan, Italy), unless specified. Compound 14 was dissolved as a 25 mM stock solution in culture medium. 4T1 cells, a 6-thioguanine-resistant cell line derived from a BALB/c mammary carcinoma which spontaneously metastasizes to both the lung and liver, were obtained by ATCC and maintained at 37° C. in a humidified atmosphere of 5% CO2 in Dulbecco's modified Eagle's Medium (DMEM) supplemented with 10% inactivated fetal bovine serum (FBS) and 1% penicillin-streptomycin. For cell growth assays, serum-starved 4T1 cells were labeled with carboxyfluorescein diacetate succinimidyl ester (CFSE) (Invitrogen, Milan Italy) at 37° C. for 30 minutes, and then treated with increasing doses of compound 14. After 24 hours, cells were incubated with 5 μg/ml of propidium iodide (PI) for 15 minutes, at 4° C. CFSE and/or PI-positive cells were determined by flow cytometry (Becton Dickinson, Milan, Italy)

The next series concerns 4T1-derived tumors. Kind of series: 4T1 syngeneic tumor model. The series is classed as in vivo, Balb/c mice. The following applies: FIG. 10; daily subcutaneous or intraperitoneal 8 mg/kg/mouse, starting day 3. The procedure:
Eight- to 10-week-old female Balb/c mice were used for the 4T1 syngeneic tumor model. 4T1 cells (1×10^5 cells in 300 μl PBS 1×) were injected subcutaneously (s.c.) into the flank of mice, whose fur was shaved and depilated. Three groups of 8 mice each were implanted with 4T1. The first group received daily s.c. 300 μl PBS (control), the remaining groups were injected daily with compound 14 (8 mg/kg/mouse) s.c. or intraperitoneally (i.p.). Both compound 14 and PBS were administered starting on day 3. Mice were monitored over the time for weight loss and sacrificed at day 14. Tumors were photographed, and excised, and their mass calculated according to the following formula: ½×(short diameter)×(long diameter)×(height).

Take `COc1ccc(N)cc1C(=O)NO` [compound 14, 2-methoxy-5-amino-N-hydroxybenzamide]: in series [1], the “proliferation of normal colonic intra-epithelial lymphocytes” value was “did not affect”. The “in-vivo formation of CT26-derived tumors” value in the series with CT26-derived tumors (FIG. 7A, daily subcutaneously 1, 4, 8, or 12 mg/kg/mouse) was “dose-dependently reduces”. The CT26-derived xenografts result with CT26-derived tumors (FIG. 7B, intra-peritoneally 8 mg/kg/mouse) is listed as “inhibits”. In addition, the “cyclin D1 protein expression in xenografts” value in the series with CT26-derived tumors (FIG. 7C, Western blotting, two different doses) is “reduced”. For the same compound, the body weight loss entry with CT26-derived tumors (during the study, treated groups) is reported as “No body weight loss”. The “tumor mass in comparison to controls” value in the series on CT26-derived tumors (given subcutaneously or intraperitoneally) was “significant decrease”. Moreover, the entries for the “mice with CT26-derived macroscopic tumors” value in the series with CT26-derived tumors (intraperitoneally) and in the series on CT26-derived tumors (subcutaneously) were 7/10 and 5/10, respectively. Also, the “histological analysis of liver, kidney, spleen, and colon” value with CT26-derived tumors (mice receiving compound) was “no morphological alteration”. In the series with CT26-derived tumors (mouse, in vivo), the survival result was “all animals survived”. Further, the “tumor size of established CT26-derived tumors vs PBS” value in series [2] is listed as “significantly reduced”. Moreover, the “in vitro proliferation of 4T1 cells” value in the series on 4T1 cells was “dose-dependently inhibited”. Moreover, the “4T1-derived tumor mass in comparison to controls” value with 4T1-derived tumors is reported as “significant decrease”.
